Laboratory results from PMC4906895, “Clonorchis sinensis omega-class glutathione transferases play major roles in the protection of the reproductive system during maturation and the response to oxidative stress” (Parasites & Vectors, 2016).
Read-outs that look alike come from different tables or passages of the source.

Experiments:
[1] = biological target: T1, Clonorchis sinensis omega-class glutathione transferase 2 (CsGSTo2) (Clonorchis sinensis, UniProt G7YE46); experiment: spectrophotometric GST activity of purified enzyme (specific activity); format: biochemical
T1 construct: gene CLF_105746; full-length recombinant (223 amino acids), His-tag removed; GenBank KX163089
T1 sequence (G7YE46 1-223): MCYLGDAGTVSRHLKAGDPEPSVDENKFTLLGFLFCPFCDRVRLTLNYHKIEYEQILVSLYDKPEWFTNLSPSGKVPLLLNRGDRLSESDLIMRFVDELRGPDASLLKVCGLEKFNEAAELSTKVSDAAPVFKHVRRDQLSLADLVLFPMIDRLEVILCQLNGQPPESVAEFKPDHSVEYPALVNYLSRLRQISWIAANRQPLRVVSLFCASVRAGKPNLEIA

[2] = biological target: T2, Clonorchis sinensis omega-class glutathione transferase 1 (CsGSTo1) (Clonorchis sinensis, UniProt A0A192IBN1); experiment: as above; format: biochemical
T2 construct: full-length recombinant (246 amino acids), His-tag removed; GenBank KX163088
T2 sequence (A0A192IBN1 1-246): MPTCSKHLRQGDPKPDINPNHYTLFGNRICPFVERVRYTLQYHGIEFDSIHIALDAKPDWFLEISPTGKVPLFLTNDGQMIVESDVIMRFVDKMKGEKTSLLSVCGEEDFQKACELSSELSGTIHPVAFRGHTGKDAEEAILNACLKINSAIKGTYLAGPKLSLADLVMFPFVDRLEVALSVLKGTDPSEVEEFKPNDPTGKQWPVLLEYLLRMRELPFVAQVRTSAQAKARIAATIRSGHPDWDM

[3] = biological target: T2, Clonorchis sinensis omega-class glutathione transferase 1 (CsGSTo1); experiment: biochemical; design: DHAR activity inhibition of recombinant CsGSTo, absorbance at 265 nm; Ki from Lineweaver-Burk plots
Method: (§1) We determined the inhibition mode of CsGSTos employing SHG and the anthelminthic drug praziquantel (PZQ; Shinpoong, Seoul, Korea). rCsGSTos (each 100 ng) were preincubated with Dulbecco’s PBS supplemented with 10–1,000 μM PZQ or 10–500 nM SHG for 2 min, after which the reaction was initiated by adding 1 mM GSH and 1 mM DHA. The increase in absorbance of the resulting […] was recorded spectrophotometrically at 265 nm. A set of reactions under identical conditions was done for each inhibitor concentration and for controls. To examine the inhibition mode of the specific active sites, rCsGSTos were preincubated with saturating concentrations of GSH (5 mM) for 2 min before conjugating reaction with varying concentrations of DHA (0.01–5 mM). […] All measurements were independently done in triplicate. Data were analyzed by Lineweaver-Burk plots. GST activity was spectrophotometrically determined employing a panel of substrates (Sigma-Aldrich); 1-chloro-2,4-dinitrobenzene (CDNB; pH 6.5, 340 nm), 1,2-dichloro-4-nitrobenzene (DCNB; pH 7.5, 345 nm), [compound left out] (4-NBC; pH 6.5, 310 nm), [compound left out] acetate (4-NPA; pH 7.0, 400 nm), 4-hydroxy nonenal (pH 7.5, 340 nm), cumene hydroperoxide (CHP; pH 6.5, 340 nm) and ethacrynic acid (pH 7.5, 340 nm). The reactions were recorded for 5 min at 25 °C in 100 mM potassium phosphate buffer (pH 7.2, 200 μl) containing each 4 mM substrate and 4 mM GSH. The formation of ascorbate by the glutathione-dependent DHAR was detected in potassium phosphate buffer (50 mM, pH 7.2) supplemented with 1 mM GSH and 0.25 mM dehydroascorbate (DHA) at 265 nm. Thioltransferase activity was assayed using hydroxylethyl disulfide (HEDS, 2 mM) in potassium phosphate buffer (50 mM, pH 7.2) containing 0.2 mM NADPH, 0.5 mM GSH and 0.5 units of glutathione reductase for 2 min at 340 nm. One unit of enzyme activity was defined as the amount of enzyme that catalyzed the formation of one micromole of product per min in the presence of respective substrates. Vmax and appKm were determined by one site saturation assays in ranges of 0.01–5 mM DHA with 5 mM GSH (saturating concentration). We also used variable concentrations of GSH ranging from 0.01–5.0 mM with 5 mM DHA (saturating concentration). Enzyme activity was monitored by changes of absorbance and was converted to specific activity using a molar extinction coefficient (Δε = 5.3). Non-enzymatic reaction was concomitantly monitored and subtracted from the entire reaction rate. All enzyme assays were independently performed in triplicate at 25 °C. Data were analyzed by best fit algorithm in SigmaPlot10.0.1 (Systat, San Diego, CA, USA). […] SHG might act via nucleophilic attack of the active site cysteine on the cysteinyl sulfur of the SHG to form a mixed disulfide with the DHA/GSH moiety with high affinity. […] PZQ might bind to a site other than the active- and glutathione-binding sites and act allosterically. We determined IC50 values of rCsGSTos against SHG and PZQ at a saturating concentration (IC50SC).

[4] = biological target: T1, Clonorchis sinensis omega-class glutathione transferase 2 (CsGSTo2); experiment: biochemical; design: DHAR activity inhibition of recombinant CsGSTo, absorbance at 265 nm; Ki from Lineweaver-Burk plots; conditions: for Ki: non-competitive
Method: as §1

[5] = substrate: O=C1O[C@H]([C@@H](O)CO)C(=O)C1=O; experiment: steady-state DHAR kinetics of purified enzyme (apparent Km); format: biochemical, Clonorchis sinensis; conditions: GSH

Which results are given for `O=[N+]([O-])c1ccc(CCl)cc1` [4-NBC, 4-nitrobenzyl chloride]?
Specific activity (μmol/min/mg) / rGSTo2 [1]: 0.91 ± 0.24 µmol/min/mg; Specific activity (μmol/min/mg) / rGSTo1 [2]: 1.42 ± 0.09 µmol/min/mg

`O=C(C1CCCCC1)N1CC(=O)N2CCc3ccccc3C2C1` (centres unmarked) [PZQ, praziquantel] was tested. Which IC50 [3] did it give?
The IC50 was 108.4 ± 0.8 µM.

What about the Ki ([3]; ligand binding site (varied GSH), non-competitive) of the same molecule?
The Ki was 46.8 µM.

What about the Ki ([3]; specific active site (varied DHA), non-competitive) of the same molecule?
Its Ki is 44.1 µM.

And the IC50 [4]?
The IC50 was 116.8 ± 0.7 µM.

What about the Ki ([4]; ligand binding site (varied GSH)) of the same molecule?
Its Ki is 42.8 µM.

And the Ki ([4]; specific active site (varied DHA))?
The Ki was 38.2 µM.

Which Ki [3] does the source give for `CCCCCCSC[C@H](NC(=O)CC[C@H](N)C(=O)O)C(=O)NCC(=O)O` [SHG, S-hexylglutathione] here?
Its Ki is 0.00063 µM.

B1: Clonorchis sinensis omega-class glutathione transferase 1 (CsGSTo1) (Clonorchis sinensis) (protein)
chain: MPTCSKHLRQGDPKPDINPNHYTLFGNRICPFVERVRYTLQYHGIEFDSIHIALDAKPDWFLEISPTGKVPLFLTNDGQMIVESDVIMRFVDKMKGEKTSLLSVCGEEDFQKACELSSELSGTIHPVAFRGHTGKDAEEAILNACLKINSAIKGTYLAGPKLSLADLVMFPFVDRLEVALSVLKGTDPSEVEEFKPNDPTGKQWPVLLEYLLRMRELPFVAQVRTSAQAKARIAATIRSGHPDWDM
notes: full-length recombinant (246 amino acids), His-tag removed; GenBank KX163088
With B1 as the molecule, how does the Km [5] read?
Its Km is 210 ± 20 µM.

What about the Vmax [5] of the same molecule?
The Vmax was 1.16 ± 0.02 µmol/min/mg.

And the kcat [5]?
Its kcat is 0.48 s⁻¹.

What about the kcat/Km [5] of the same molecule?
Its kcat/Km is 2290 M⁻¹ s⁻¹.

B2: Clonorchis sinensis omega-class glutathione transferase 2 (CsGSTo2) (Clonorchis sinensis) (protein)
chain: MCYLGDAGTVSRHLKAGDPEPSVDENKFTLLGFLFCPFCDRVRLTLNYHKIEYEQILVSLYDKPEWFTNLSPSGKVPLLLNRGDRLSESDLIMRFVDELRGPDASLLKVCGLEKFNEAAELSTKVSDAAPVFKHVRRDQLSLADLVLFPMIDRLEVILCQLNGQPPESVAEFKPDHSVEYPALVNYLSRLRQISWIAANRQPLRVVSLFCASVRAGKPNLEIA
notes: full-length recombinant (223 amino acids), His-tag removed; GenBank KX163089
B2 was tested. Which Km [5] did it give?
Its Km is 170 ± 20 µM.

And the Vmax [5]?
The Vmax was 1.08 ± 0.02 µmol/min/mg.

And the kcat [5]?
Its kcat is 0.43 s⁻¹.

And the kcat/Km [5]?
Its kcat/Km is 2530 M⁻¹ s⁻¹.
